Laboratory results published in ChEMBL document CHEMBL5465560, “Selectivity Literature for EUbOPEN Chemogenomic Library” (2024).

Legend:
[1] = biological target: Ribosomal protein S6 kinase alpha-4 (Homo sapiens) (UniProt O75676); test: Selectivity interaction (KinomeScan (DiscoverX)) EUB0000655a RPS6KA4; conditions: at 10 µM
[2] = biological target: T1, Serine/threonine-protein kinase BRSK2 (Homo sapiens) (UniProt Q8IWQ3); test: Selectivity interaction (KinomeScan (DiscoverX)) EUB0000655a BRSK2; conditions: at 10 µM
T1 sequence (whole entry): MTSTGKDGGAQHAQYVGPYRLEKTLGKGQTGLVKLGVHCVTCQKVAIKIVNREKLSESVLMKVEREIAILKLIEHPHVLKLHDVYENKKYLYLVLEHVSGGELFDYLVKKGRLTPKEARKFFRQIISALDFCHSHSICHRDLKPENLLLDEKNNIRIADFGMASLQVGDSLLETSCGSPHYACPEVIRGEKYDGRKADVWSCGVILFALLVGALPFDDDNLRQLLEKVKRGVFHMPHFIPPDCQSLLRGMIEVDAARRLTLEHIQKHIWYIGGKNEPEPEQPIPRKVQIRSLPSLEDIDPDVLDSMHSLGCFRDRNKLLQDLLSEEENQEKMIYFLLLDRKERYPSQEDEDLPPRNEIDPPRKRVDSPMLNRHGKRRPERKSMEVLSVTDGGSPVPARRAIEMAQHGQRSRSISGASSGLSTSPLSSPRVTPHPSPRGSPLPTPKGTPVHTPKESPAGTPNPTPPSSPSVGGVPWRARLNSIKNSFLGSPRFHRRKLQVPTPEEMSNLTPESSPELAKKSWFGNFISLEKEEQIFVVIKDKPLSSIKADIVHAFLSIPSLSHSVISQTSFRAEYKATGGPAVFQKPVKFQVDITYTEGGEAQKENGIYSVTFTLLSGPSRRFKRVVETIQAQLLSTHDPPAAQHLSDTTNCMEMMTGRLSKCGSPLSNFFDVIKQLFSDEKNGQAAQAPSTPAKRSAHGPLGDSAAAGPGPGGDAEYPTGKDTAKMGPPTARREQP

[3] = biological target: T2, Mitogen-activated protein kinase kinase kinase 19 (Homo sapiens) (UniProt Q56UN5); test: Selectivity interaction (KinomeScan (DiscoverX)) EUB0001619a MAP3K19; conditions: at 1 µM
T2 sequence (whole entry): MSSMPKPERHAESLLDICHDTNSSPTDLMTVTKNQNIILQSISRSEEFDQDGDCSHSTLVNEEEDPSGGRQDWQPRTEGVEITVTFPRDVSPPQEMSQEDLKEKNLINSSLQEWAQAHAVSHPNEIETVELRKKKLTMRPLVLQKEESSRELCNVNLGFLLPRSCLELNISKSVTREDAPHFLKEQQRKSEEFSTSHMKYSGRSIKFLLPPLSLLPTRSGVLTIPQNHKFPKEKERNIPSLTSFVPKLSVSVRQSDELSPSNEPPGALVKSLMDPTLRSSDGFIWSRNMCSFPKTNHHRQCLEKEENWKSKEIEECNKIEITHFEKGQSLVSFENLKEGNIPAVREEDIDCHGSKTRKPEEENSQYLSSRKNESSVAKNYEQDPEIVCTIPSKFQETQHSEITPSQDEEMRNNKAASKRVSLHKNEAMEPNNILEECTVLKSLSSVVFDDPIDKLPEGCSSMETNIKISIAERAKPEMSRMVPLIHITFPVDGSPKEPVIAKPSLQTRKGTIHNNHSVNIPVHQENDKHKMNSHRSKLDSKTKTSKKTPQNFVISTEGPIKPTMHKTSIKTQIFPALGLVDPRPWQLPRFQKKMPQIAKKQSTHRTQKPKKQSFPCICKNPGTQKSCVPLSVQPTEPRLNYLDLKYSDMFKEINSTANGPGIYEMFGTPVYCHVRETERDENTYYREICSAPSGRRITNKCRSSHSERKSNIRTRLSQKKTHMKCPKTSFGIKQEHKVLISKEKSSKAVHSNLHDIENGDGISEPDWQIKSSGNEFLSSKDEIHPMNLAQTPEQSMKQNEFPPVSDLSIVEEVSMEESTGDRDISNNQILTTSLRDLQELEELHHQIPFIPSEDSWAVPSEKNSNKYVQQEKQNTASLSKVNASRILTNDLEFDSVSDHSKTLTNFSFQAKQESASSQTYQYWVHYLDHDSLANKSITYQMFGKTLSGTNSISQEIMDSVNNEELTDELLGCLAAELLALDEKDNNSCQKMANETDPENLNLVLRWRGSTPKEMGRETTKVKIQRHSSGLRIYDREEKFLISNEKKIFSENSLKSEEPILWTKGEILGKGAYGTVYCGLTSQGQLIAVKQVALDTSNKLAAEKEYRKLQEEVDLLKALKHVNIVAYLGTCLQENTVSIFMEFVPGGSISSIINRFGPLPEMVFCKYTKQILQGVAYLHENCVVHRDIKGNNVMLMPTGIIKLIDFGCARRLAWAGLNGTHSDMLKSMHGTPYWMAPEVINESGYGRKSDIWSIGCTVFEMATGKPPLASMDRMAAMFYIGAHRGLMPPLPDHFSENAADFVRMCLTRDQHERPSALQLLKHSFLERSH

Ribosomal protein S6 kinase alpha-4 (Homo sapiens), sequence (O75676 whole entry, looked up): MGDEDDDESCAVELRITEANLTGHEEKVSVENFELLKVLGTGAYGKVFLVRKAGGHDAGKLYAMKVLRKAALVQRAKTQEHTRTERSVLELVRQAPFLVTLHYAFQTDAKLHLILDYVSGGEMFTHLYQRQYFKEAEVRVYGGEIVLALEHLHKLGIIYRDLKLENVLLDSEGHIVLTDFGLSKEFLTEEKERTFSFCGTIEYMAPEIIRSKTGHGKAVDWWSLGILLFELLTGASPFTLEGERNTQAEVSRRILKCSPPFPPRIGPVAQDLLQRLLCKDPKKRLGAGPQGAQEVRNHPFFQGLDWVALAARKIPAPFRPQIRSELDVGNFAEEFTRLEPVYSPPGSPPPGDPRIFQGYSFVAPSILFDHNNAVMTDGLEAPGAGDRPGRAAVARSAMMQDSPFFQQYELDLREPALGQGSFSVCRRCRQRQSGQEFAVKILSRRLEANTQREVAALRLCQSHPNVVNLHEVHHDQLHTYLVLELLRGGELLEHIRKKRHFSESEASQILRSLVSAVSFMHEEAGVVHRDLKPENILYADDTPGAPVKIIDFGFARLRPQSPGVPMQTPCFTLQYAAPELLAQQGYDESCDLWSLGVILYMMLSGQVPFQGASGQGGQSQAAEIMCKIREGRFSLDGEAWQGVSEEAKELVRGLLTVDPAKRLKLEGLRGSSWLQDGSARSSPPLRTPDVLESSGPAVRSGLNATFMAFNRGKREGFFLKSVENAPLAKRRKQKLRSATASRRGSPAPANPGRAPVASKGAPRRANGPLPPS

Row | SMILES | % of control [1] [%] | % of control [2] [%] | % of control [3] [%]
1 | CN(C)CCOc1ccc(-c2nc(-c3ccncc3)c(-c3ccc4c(c3)CC/C4=N\O)[nH]2)cc1 | 81 | 88 | 
2 | N#Cc1cccc(-c2c[nH]c3ncnc(N4CCOCC4)c23)c1 |  |  | 3.8
